Where two headings read alike, the source gives them in different places.
Key:
[1] = Cytotoxicity, Cell Proliferation Kit II (XTT) (Table 2); format: cell-based; conditions: human
[2] = tested on: HBV; assay: Cell-based anti-HBV activity of HF9C6 analogs (Table 2; HBV DNA in HepAD38 cells); conditions: Hepatitis B virus
Protocol: HepAD38 cells (5×10^4) were plated in 96-well plates in tet media. The next day, cells were washed 2× with PBS, and the media was replaced with complete media (DMEM, 10% FBS) containing compounds. Fresh complete media with compounds was added again after 2 days. After 2 additional days, cells were washed with PBS, trypsinized, and pelleted by centrifugation. The cell pellet was resuspended in 200 μl PBS, and DNA was extracted and analyzed as above. For dose responses, values were plotted in GraphPad Prism 5 and analyzed with the log (inhibitor) vs. normalized response—variable slope equation.
HepAD38 cells were seeded in 96-well plates (3×10^4 cells/well) in tet media. […] After 2 days, the media was removed, and fresh media containing compounds was added. After 2 additional days, cells were washed with PBS and lysed with 10 mM Tris (pH 7.5), 1mM EDTA, 100mM NaCl, 1% NP-40 at 37° C. for 30 min. 60 μl of lysate was added to 60 μl of 1 M NaOH, 1.5 M NaCl and incubated at RT for 5 min to denature DNA. 120 μl of 1 M Tris (pH 7.4), 2 M NaCl was added. Samples were transferred to positively charged nylon membranes (Roche) using a vacuum dot blot manifold. The wells were washed with 200 μl of 20× SSC (3M NaCl, 300 mM sodium citrate), and the DNA was UV crosslinked to the membranes. […] Membranes were incubated with CDP-STAR® chemiluminescent substrate (Roche), imaged by chemiluminescence, and quantified by densitometry. Values were plotted in GraphPad Prism 5 and analyzed with the log (inhibitor) vs. normalized response—variable slope equation.

[3] = Table 2, cell-based, read-out: EC50

SMILES	EC50 [2, 3]	CC50 ([1]; HepG2 cells)	also measured
Cc1cc(NC(=O)c2sc(N)c(C(N)=O)c2C)ccc1Br [ZW-1068, 5-Amino-N2-(4-bromo-3-methylphenyl)-3-methylthiophene-2,4-dicarboxamide]			CC50 [1]: 107 ± 7.2 µM
Cc1c(C(=O)Nc2ccccc2)sc(N)c1C(=O)NCc1ccc(C(F)(F)F)cc1 [ZW-790, 5-Amino-3-methyl-N2-phenyl-N4-(4-(trifluoromethyl)benzyl)thiophene-2,4-dicarboxamide]	> 10 µM		
Cc1c(C(=O)Nc2ccccc2)sc(NC(=O)c2nccs2)c1C(N)=O [ZW-1053, 3-Methyl-N2-phenyl-5-(thiazole-2-carboxamido)thiophene-2,4-dicarboxamide]		> 100 µM	
CCOC(=O)c1sc2[nH]c(C3CCCCC3)nc(=O)c2c1C [ZW-777, Ethyl 2-cyclohexyl-5-methyl-4-oxo-1,4-dihydrothieno[2,3-d]pyrimidine-6-carboxylate]	> 10 µM		
COc1ccc(CNC(=O)c2c(N)sc(C(=O)Nc3ccccc3)c2C)cc1 [ZW-791, 5-Amino-N4-(4-methoxybenzyl)-3-methyl-N2-phenylthiophene-2,4-dicarboxamide]	> 10 µM		
CCOC(=O)c1sc2[nH]c(-c3ccc(C)c(F)c3)nc(=O)c2c1C [ZW-775, Ethyl 2-(3-fluoro-4-methylphenyl)-5-methyl-4-oxo-1,4-dihydrothieno[2,3-d]pyrimidine-6-carboxylate]	> 10 µM		
Cc1c(C(=O)Nc2ccc(F)c(C(F)F)c2)sc(N)c1C(N)=O [ZW-1066, 5-Amino-N2-(3-(difluoromethyl)-4-fluorophenyl)-3-methylthiophene-2,4-dicarboxamide]		> 100 µM	
Cc1c(C(=O)Nc2cc(F)c(F)c(Cl)c2)sc(N)c1C(N)=O [ZW-1034, 5-Amino-N2-(3-chloro-4,5-difluorophenyl)-3-methylthiophene-2,4-dicarboxamide]			CC50 [1]: 71.8 ± 4.1 µM
Cc1c(C(=O)Nc2ccccc2)sc(N)c1C(=O)Nc1ccccc1 [ZW-794, 5-Amino-3-methyl-N2,N4-diphenylthiophene-2,4-dicarboxamide]		> 100 µM	
CCOC(=O)c1sc2[nH]c(Cc3ccc(F)cc3)nc(=O)c2c1C [ZW-776, Ethyl 2-(4-fluorobenzyl)-5-methyl-4-oxo-1,4-dihydrothieno[2,3-d]pyrimidine-6-carboxylate]	> 10 µM		
Cc1ccc(NC(=O)c2sc(N)c(C(N)=O)c2C)cc1 [ZW-771, 5-Amino-3-methyl-N2-(p-tolyl)thiophene-2,4-dicarboxamide]	> 10 µM		
CCOC(=O)c1c(N)sc(C(=O)Nc2ccccc2)c1C [ZW-1045, Ethyl 2-amino-4-methyl-5-(phenylcarbamoyl)thiophene-3-carboxylate]	> 10 µM		CC50 [1]: 75.9 ± 1.8 µM
Cc1c(C(=O)Nc2ccccc2)sc(NC(=O)c2csc([N+](=O)[O-])c2)c1C(N)=O [ZW-1054, 3-Methyl-5-(5-nitrothiophene-3-carboxamido)-N2-phenylthiophene-2,4-dicarboxamide]		> 100 µM	
Cc1c(C(=O)Nc2ccc(F)c(C(F)(F)F)c2)sc(N)c1C(N)=O [ZW-1057, 5-Amino-N2-(4-fluoro-3-(trifluoromethyl)phenyl)-3-methylthiophene-2,4-dicarboxamide]		> 100 µM	
CCOC(=O)c1sc2[nH]c(Cc3ccccc3)nc(=O)c2c1C [ZW-772, Ethyl 2-benzyl-5-methyl-4-oxo-1,4-dihydrothieno[2,3-d]pyrimidine-6-carboxylate]			EC50 [2]: > 10 µM
Cc1c(C(=O)Nc2ccccc2)sc(NC(=O)c2ccc(S(C)(=O)=O)cc2)c1C(N)=O [ZW-1073, 3-Methyl-5-(4-(methylsulfonyl)benzamido)-N2-phenylthiophene-2,4-dicarboxamide]		> 100 µM	
Cc1ccc(CC(=O)Nc2sc(C(=O)Nc3ccccc3)c(C)c2C(N)=O)cc1F [ZW-1051, 5-(2-(3-Fluoro-4-methylphenyl)acetamido)-3-methyl-N2-phenylthiophene-2,4-dicarboxamide]	> 10 µM	> 100 µM	
Cc1c(C(=O)Nc2ccccc2)sc(NC(=O)c2cn[nH]c2)c1C(N)=O [ZW-1052, 3-Methyl-N2-phenyl-5-(1H-pyrazole-4-carboxamido)thiophene-2,4-dicarboxamide]		> 100 µM	
Cc1cc(NC(=O)c2sc(N)c(C#N)c2C)ccc1F [ZW-1044, 5-Amino-4-cyano-N-(4-fluoro-3-methylphenyl)-3-methylthiophene-2-carboxamide]			CC50 [1]: 96.1 ± 10.1 µM
Cc1c(C(=O)Nc2ccc(F)c(F)c2)sc(N)c1C(=O)Nc1ccc(F)c(F)c1 [ZW-932, 5-Amino-N2,N4-bis(3,4-difluorophenyl)-3-methylthiophene-2,4-dicarboxamide]		17.4 ± 1.3 µM	
Cc1c(C(=O)Nc2ccccc2)sc(N)c1C(=O)Nc1ccc(F)c(F)c1 [ZW-933, 5-Amino-N4-(3,4-difluorophenyl)-3-methyl-N2-phenylthiophene-2,4-dicarboxamide]			CC50 [1]: 40.5 ± 5.1 µM

SMILES	EC50 [2, 3]	CC50 ([1]; HepG2 cells)	also measured
Cc1c(C(=O)Nc2ccc(F)c(F)c2)sc(N)c1C(=O)Nc1ccccc1 [ZW-892, 5-Amino-N2-(3,4-difluorophenyl)-3-methyl-N4-phenylthiophene-2,4-dicarboxamide]			CC50 [1]: 26.2 ± 2.7 µM
Cc1ccc(C(=O)Nc2sc(C(=O)Nc3ccccc3)c(C)c2C(N)=O)s1 [ZW-1056, 3-Methyl-5-(5-methylthiophene-2-carboxamido)-N2-phenylthiophene-2,4-dicarboxamide]		> 100 µM	
Cc1c(C(=O)Nc2ccccc2)sc(N)c1C(=O)NC1CCCC1 [ZW-895, 5-Amino-N4-cyclopentyl-3-methyl-N2-phenylthiophene-2,4-dicarboxamide]	> 10 µM		
Cc1c(C(=O)Nc2ccc(F)c(F)c2)sc(N)c1C(=O)NC1CCCC1 [ZW-894, 5-Amino-N4-cyclopentyl-N2-(3,4-difluorophenyl)-3-methylthiophene-2,4-dicarboxamide]	> 10 µM		
Cc1c(C(=O)Nc2ccc(F)c(F)c2)sc(N)c1C(=O)Nc1ccc(Cl)cc1 [ZW-893, 5-Amino-N4-(4-chlorophenyl)-N2-(3,4-difluorophenyl)-3-methylthiophene-2,4-dicarboxamide]	> 10 µM		
Cc1c(C(=O)Nc2ccccc2)sc(N)c1C(=O)NC1CC1 [ZW-792, 5-Amino-N4-cyclopropyl-3-methyl-N2-phenylthiophene-2,4-dicarboxamide]	> 10 µM		
Cc1c(C(=O)Nc2ccc(F)c(F)c2)sc(N)c1C(N)=O [ZW-896, 5-Amino-N2-(3,4-difluorophenyl)-3-methylthiophene-2,4-dicarboxamide]		> 100 µM	
Cc1c(C(=O)NCc2ccccc2)sc(N)c1C(N)=O [ZW-770, 5-Amino-N2-benzyl-3-methylthiophene-2,4-dicarboxamide]	~10 µM		
Cc1cc(NC(=O)c2c(N)sc(C(=O)Nc3ccccc3)c2C)ccc1F [ZW-934, 5-Amino-N4-(4-fluoro-3-methylphenyl)-3-methyl-N2-phenylthiophene-2,4-dicarboxamide]			CC50 [1]: 39.6 ± 2.6 µM
Cc1c(C(=O)Nc2ccc(F)c(F)c2)sc(N)c1C#N [ZW-1043, 5-Amino-4-cyano-N-(3,4-difluorophenyl)-3-methylthiophene-2-carboxamide]	~10 µM	> 100 µM	
Cc1c(C(=O)Nc2ccccc2)sc(NC(=O)c2cc(Cl)cc(Cl)c2)c1C(N)=O [ZW-1040, 5-(3,5-Dichlorobenzamido)-3-methyl-N2-phenylthiophene-2,4-dicarboxamide]			CC50 [1]: 49.5 ± 0.1 µM
Cc1c(C(=O)Nc2ccccc2)sc(NC(=O)c2ccsc2)c1C(N)=O [ZW-1055, 3-Methyl-N2-phenyl-5-(thiophene-3-carboxamido)thiophene-2,4-dicarboxamide]		> 100 µM	
CCOC(=O)c1sc2[nH]c(Cc3cc(C)cc(C)c3)nc(=O)c2c1C [ZW-773, Ethyl 2-(3,5-dimethylbenzyl)-5-methyl-4-oxo-1,4-dihydrothieno[2,3-d]pyrimidine-6-carboxylate]	> 10 µM		
Cc1c(C(=O)Nc2ccc(F)c(C#N)c2)sc(N)c1C(N)=O [ZW-1039, 5-Amino-N2-(3-cyano-4-fluorophenyl)-3-methylthiophene-2,4-dicarboxamide]		> 100 µM	
CCOC(=O)c1c(N)sc(C(=O)Nc2ccc(F)c(C)c2)c1C [ZW-1046, Ethyl 2-amino-5-((4-fluoro-3-methylphenyl)carbamoyl)-4-methylthiophene-3-carboxylate]		> 100 µM	
Cc1c(C(=O)Nc2ccc(F)cc2)sc(N)c1C(N)=O [ZW-1037, 5-Amino-N2-(4-fluorophenyl)-3-methylthiophene-2,4-dicarboxamide]		> 100 µM	
COc1ccc(NC(=O)c2sc(N)c(C(N)=O)c2C)cc1 [ZW-769, 5-Amino-N2-(4-methoxyphenyl)-3-methylthiophene-2,4-dicarboxamide]	~10 µM		
CCOC(=O)c1sc2[nH]c(Cc3ccc(-c4ccccc4)cc3)nc(=O)c2c1C [ZW-774, Ethyl 2-([1,1′-biphenyl]-4-ylmethyl)-5-methyl-4-oxo-1,4-dihydrothieno[2,3-d]pyrimidine-6-carboxylate]	> 10 µM		
Cc1c(C(=O)Nc2ccc(Cl)c(C(F)(F)F)c2)sc(N)c1C(N)=O [ZW-1067, 5-Amino-N2-(4-chloro-3-(trifluoromethyl)phenyl)-3-methylthiophene-2,4-dicarboxamide]			CC50 [1]: 72.1 ± 6.4 µM
Cc1c(C(=O)Nc2ccccc2)sc(NC(=O)Cc2ccc(F)c(F)c2)c1C(N)=O [ZW-1050]	~10 µM	> 100 µM	

From US10759774B2, “Inhibitors of hepatitis B virus targeting capsid assembly” (THE CURATORS OF THE UNIVERSITY OF MISSOURI, priority 2017, dated 2020)
